Results: patent publication US6500803B1, “Factor VIIa inhibitors” (Aventis Pharma Deutschland GmbH, priority 1999, dated 2002)

Molecular target: T1, factor VIIa/tissue factor (Homo sapiens, UniProt P08709)
T1 construct: human factor VIIa and TF (5 nM and 10 nM, respective final concentration)
Experiment: Factor VIIa (FVIIa) chromogenic assay
Format: biochemical
Settings: human factor VIIa 5 nM and TF 10 nM, chromogenic substrate S-2288 500 μM, 15 min preincubation, 25° C., pH 8.15
Experimental: The ability of compounds of formula I to inhibit factor VIIa or other enzymes like factor Xa, thrombin, plasmin, or trypsin can be assessed by determining the concentration of the compound of formula I that inhibits enzyme activity by 50%, i.e., the IC50 value, which is related to the inhibition constant Ki. Purified enzymes are used in chromogenic assays. The concentration of inhibitor that causes a 50% decrease in the rate of substrate hydrolysis is determined by linear regression after plotting the relative rates of hydrolysis (compared to the uninhibited control) versus the log of the concentration of the compound of formula I. For calculating the inhibition constant Ki, the IC50 value is corrected for competition with substrate using the formula: Ki=IC50/{1+(substrate concentration/Km)} wherein Km is the Michaelis-Menten constant (Chen and Prusoff, Biochem. Pharmacol. 22 (1973), 3099-3108; I. H. Segal, Enzyme Kinetics, John Wiley & Sons, New York (1975) 100-125; which are incorporated herein by reference).
a) Factor VIIa (FVIIa) Assay
The inhibitory activity (expressed as inhibition constant Ki (FVIIa)) of compounds of formula I towards factor VIIa/tissue factor activity was determined using a chromogenic assay essentially as described previously (J. A. Ostrem et al., Biochemistry 37 (1998) 1053-1059, which is incorporated herein by reference). Kinetic assays were conducted at 25° C. in half-area microtiter plates (Costar Corp., Cambridge, Mass.) using a kinetic plate reader (Molecular Devices Spectramax 250). A typical assay consisted of 25 μl of human factor VIIa and TF (5 nM and 10 nM, respective final concentration) combined with 40 μl of inhibitor dilutions in 10% DMSOFTBS-PEG buffer (50 mM Tris, 15 mM NaCl, 5 mM CaCl2, 0.05% PEG 8000, pH 8.15). Following a 15 min preincubation period, the assay was initiated by the addition of 35 μl of the chromogenic substrate S-2288 (D-Ile-Pro-Arg-p-nitroanilide, Pharmacia Hepar Inc., 500 μM final concentration).

T1 sequence (P08709 213-466 limits assumed): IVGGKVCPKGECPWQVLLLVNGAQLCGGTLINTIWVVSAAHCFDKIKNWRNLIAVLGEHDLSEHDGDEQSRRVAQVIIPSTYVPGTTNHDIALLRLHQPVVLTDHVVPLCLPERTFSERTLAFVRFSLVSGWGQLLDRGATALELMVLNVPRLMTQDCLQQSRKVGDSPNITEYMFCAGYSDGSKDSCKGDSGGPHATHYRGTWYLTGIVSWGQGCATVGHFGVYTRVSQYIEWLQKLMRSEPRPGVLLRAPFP
T1 sequence (P08709 61-212 limits assumed): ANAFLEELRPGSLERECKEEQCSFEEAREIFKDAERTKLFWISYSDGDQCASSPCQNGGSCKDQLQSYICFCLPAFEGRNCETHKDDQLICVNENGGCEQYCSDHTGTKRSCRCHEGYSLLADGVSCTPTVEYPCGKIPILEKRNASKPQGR
T1 sequence (P13726 33-295 partner): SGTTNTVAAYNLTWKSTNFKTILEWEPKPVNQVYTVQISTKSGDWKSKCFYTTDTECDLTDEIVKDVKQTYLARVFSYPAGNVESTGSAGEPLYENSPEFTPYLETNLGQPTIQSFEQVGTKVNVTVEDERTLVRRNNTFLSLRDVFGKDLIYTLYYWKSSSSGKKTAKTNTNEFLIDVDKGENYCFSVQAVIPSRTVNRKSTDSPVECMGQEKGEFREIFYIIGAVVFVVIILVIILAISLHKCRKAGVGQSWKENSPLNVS

| SMILES | Ki [µM] |
| --- | --- |
| C=CCOC(=O)N[C@@H](Cc1ccc(C(=N)N)cc1)C(=O)N[C@@H](CCC(=O)O)C(=O)NC1c2ccccc2-c2ccc(N)cc21 (mixture of isomers) [Example 6, Alloc-pAph-Glu-((RS)-2-amino-9H-fluorene-9-yl)amide] | 0.4 |
| C=CCOC(=O)N[C@@H](Cc1ccc(C(=N)N)cc1)C(=O)N[C@@H](CCC(=O)O)C(=O)NCCCNC(=O)OCC [Example 7, Alloc-pAph-Glu-(3-ethoxycarbonylaminopropyl)amide] | 0.8 |
| C=CCOC(=O)N[C@@H](Cc1ccc(C(=N)N)cc1)C(=O)N[C@@H](CCC(=O)O)C(=O)NCCc1ccc(N)cc1 [Example 3, Alloc-pAph-Glu-(2-(4-aminophenyl)ethyl)amide] | 0.8 |
| C=CCOC(=O)N[C@@H](Cc1ccc(C(=N)N)cc1)C(=O)N[C@@H](CCCC(=O)O)C(=O)NCc1cccc(N)c1 [Example 15, Alloc-pAph-2-Aad-(3-aminobenzyl)amide] | 75.7 |
| C=CCOC(=O)N[C@@H](Cc1ccc(C(=N)N)cc1)C(=O)N[C@@H](CCC(=O)O)C(=O)NCc1cccc(CNS(=O)(=O)C=Cc2ccccc2)c1 [Example 22] | 1.46 |
| C=CCOC(=O)N[C@@H](Cc1ccc(C(=N)N)cc1)C(=O)N[C@@H](CCC(=O)O)C(=O)NCc1cccc(CNS(=O)(=O)N(C)C)c1 [Example 21] | 0.62 |
| C=CCOC(=O)N[C@@H](Cc1ccc(C(=N)N)cc1)C(=O)N[C@@H](CCC(=O)O)C(=O)NCc1cccc(CNS(=O)(=O)c2ccc(F)cc2)c1 [Example 25] | 1.88 |
| C=CCOC(=O)N[C@@H](Cc1ccc(C(=N)N)cc1)C(=O)N[C@@H](CCC(=O)O)C(=O)NCc1cccc(CNS(=O)(=O)c2ccc(OC)cc2)c1 [Example 19] | 0.68 |
| C=CCOC(=O)N[C@@H](Cc1ccc(C(=N)N)cc1)C(=O)N[C@@H](CCC(=O)O)C(=O)NCc1cccc(CNS(=O)(=O)c2cccc3ccccc23)c1 [Example 18] | 1.8 |
| C=CCOC(=O)NC(Cc1ccc(C(=N)N)cc1)C(=O)NC(CCC(=O)O)C(=O)NCc1ccc(O)cc1O (stereo not drawn) [Example 4, Alloc-pAph-Glu-(2,4-dihydroxybenzyl)amide] | 0.7 |
| C=CCOC(=O)N[C@@H](Cc1ccc(C(=N)N)cc1)C(=O)N[C@@H](CCC(=O)O)C(=O)NCc1cccc(CNS(=O)(=O)c2ccc3ccccc3c2)c1 [Example 11, Alloc-pAph-Glu-(3-((naphthalene-2-sulfonylamino)methyl)benzyl)amide] | 0.8 |
| C=CCOC(=O)N[C@@H](Cc1ccc(C(=N)N)cc1)C(=O)N[C@@H](CCC(=O)O)C(=O)NC1CCN(S(=O)(=O)c2cccc(Br)c2)CC1 [Example 30] | 0.43 |
| C=CCOC(=O)N[C@@H](Cc1ccc(C(=N)N)cc1)C(=O)N[C@@H](CCC(=O)O)C(=O)NCCCNS(=O)(=O)c1cccc(Br)c1 [Example 26] | 0.3 |
| C=CCOC(=O)N[C@@H](Cc1ccc(C(=N)N)cc1)C(=O)N[C@@H](CCC(=O)O)C(=O)NCCCNS(=O)(=O)c1cc(Cl)cc(Cl)c1 [Example 10, Alloc-pAph-Glu-(3-(3,5-dichlorobenzenesulfonylamino)propyl)amide] | 0.68 |
| C=CCOC(=O)N[C@@H](Cc1ccc(C(=N)N)cc1)C(=O)N[C@@H](CCC(=O)O)C(=O)NC1CCN(S(=O)(=O)c2cccc(Cl)c2)CC1 [Example 32] | 0.56 |
| C=CCOC(=O)N[C@@H](Cc1ccc(C(=N)N)cc1)C(=O)N[C@@H](CCC(=O)O)C(=O)NCCCNS(=O)(=O)c1ccc(OC)cc1 [Example 28] | 0.28 |
| C=CCOC(=O)N[C@@H](Cc1ccc(C(=N)N)cc1)C(=O)N[C@@H](CCC(=O)O)C(=O)NCc1cccc(CNS(C)(=O)=O)c1 [Example 20] | 2.03 |
| C=CCOC(=O)N[C@@H](Cc1ccc(C(=N)N)cc1)C(=O)N[C@@H](CCC(=O)O)C(=O)NCc1cnc(C)nc1N [Example 13, Alloc-pAph-Glu-(4-amino-2-methylpyrimidin-5-ylmethyl)amide] | 1.9 |

More lines, now with the values ahead:

| Ki [µM] | SMILES |
| --- | --- |
| 0.64 | C=CCOC(=O)N[C@@H](Cc1ccc(C(=N)N)cc1)C(=O)N[C@@H](CCC(=O)O)C(=O)NC1CCN(S(=O)(=O)c2cccc(C(F)(F)F)c2)CC1 [Example 31] |
| 3.4 | C=CCOC(=O)N[C@@H](Cc1ccc(C(=N)N)cc1)C(=O)N[C@@H](CC(=O)O)C(=O)NCc1cccc(N)c1 [Example 14, Alloc-pAph-Asp-(3-aminobenzyl)amide] |
| 0.89 | C=CCOC(=O)N[C@@H](Cc1ccc(C(=N)N)cc1)C(=O)N[C@@H](CCC(=O)O)C(=O)NCc1cccc(CNS(=O)(=O)c2ccc(Cl)s2)c1 [Example 24] |
| 0.4 | C=CCOC(=O)N[C@@H](Cc1ccc(C(=N)N)cc1)C(=O)N[C@@H](CCC(=O)O)C(=O)NCc1ccc(N)cc1 [Example 1, Alloc-pAph-Glu-(4-aminobenzyl)amide] |
| 3.7 | C=CCOC(=O)N[C@@H](Cc1ccc(C(=N)N)cc1)C(=O)N[C@@H](CCC(=O)O)C(=O)NCc1cccc(CN)c1 [Example 37] |
| 0.2 | C=CCOC(=O)N[C@@H](Cc1ccc(C(=N)N)cc1)C(=O)N[C@@H](CCC(=O)O)C(=O)NCc1cccc(N)c1 [Example 2, Alloc-pAph-Glu-(3-aminobenzyl)amide] |
| 44.1 | C=CCOC(=O)N[C@@H](Cc1ccc(C(=N)N)cc1)C(=O)N[C@@H](CCC(=O)O)C(=O)Nc1nc(CC(N)=O)cs1 [Example 12, Alloc-pAph-Glu-(4-carbamoylmethylthiazol-2-yl)amide] |
| 3.82 | C=CCOC(=O)N[C@@H](Cc1ccc(C(=N)N)cc1)C(=O)N[C@@H](CCC(=O)O)C(=O)NCCCN [Example 38] |
| 0.6 | C=CCOC(=O)N[C@@H](Cc1ccc(C(=N)N)cc1)C(=O)N[C@@H](CCC(=O)O)C(=O)NCc1ccccc1N [Example 5, Alloc-pAph-Glu-(2-aminobenzyl)amide] |
